Experimental data from ChEMBL document CHEMBL5724562, “Toxicity screen in isolated B cell assay results for EUbOPEN Chemogenomics Library” (2024).
Positions of bridges follow the written chain, without caps; N, C: chain ends. Non-standard residues stand in square brackets, D forms with d. Residues, ends and D or L forms follow the SMILES beside them. *: point of attachment. dPhe(4-NHCONH2) = NC(=O)Nc1ccc(C[C@@H](N)C(=O)O)cc1; Dihydroorotyl(S) = O=C1C[C@@H](C(=O)*)NC(=O)N1; dPhe(4-Cl) = N[C@H](Cc1ccc(Cl)cc1)C(=O)O; Phe(4-NH2) = Nc1ccc(C[C@H](N)C(=O)O)cc1; d2Nal = N[C@H](Cc1ccc2ccccc2c1)C(=O)O; Lys(iPr) = CC(C)NCCCC[C@H](N)C(=O)O; d3Pal = N[C@H](Cc1cccnc1)C(=O)O; Orn = NCCC[C@H](N)C(=O)O; Mpa = O=C(O)CCS

Test system: B cell
Assay: Cytotoxicity screening of chemical probes in isolated B cell assay. Data is normalized to DMSO control, the cell viability average of replicates are reported. Reduction of ATP level more than 20% indicate compromised cell health status.
Conditions: human

Compound: O=C(Nc1cccnn1)N1CCC(=Cc2cccc(Oc3ccc(C(F)(F)F)cn3)c2)CC1
- Cell Viability (1 µM): 98.4854%

Compound: COc1cc(C#N)ccc1S(=O)(=O)Nc1ccc2c(c1)cc(C)c(=O)n2C
- Cell Viability (1 µM): 99.4263%

Compound: Cc1ccc(/C(=C\CN2CCCC2)c2ccccn2)cc1 [TRIPROLIDINE]
- Cell Viability (1 µM): 98.8273%

Compound: CCN(CCO)CCCOc1ccc2c(Nc3cc(CC(=O)Nc4cccc(F)c4)[nH]n3)ncnc2c1 [DEFOSBARASERTIB]
- Cell Viability (1 µM): 100.387%

Compound: Nc1c(C(=O)NCc2ccc(C(=O)NCCCC3CCCCC3)cc2)cnn1-c1ccccc1 [SR-318]
- Cell Viability (0.1 µM): 97.9561%

Compound: CC(C)C[C@@H]1NC(=O)[C@@H](C(C)C)NC(=O)[C@@H]2CCCN2C(=O)[C@@H](CC(=O)O)NC(=O)[C@@H](Cc2c[nH]c3ccccc23)NC1=O [BQ-123] (cyclo(L[dW][dD]P[dV]))
- Cell Viability (1 µM): 98.787%

Compound: CC(=O)C1=C(C)N(c2cccc(C(F)(F)F)c2)C(=O)N[C@@H]1c1ccc(C#N)nc1 [BAY-678]
- Cell Viability (1 µM): 97.287%

Compound: CCNC1(C(N)=O)CCN(c2ncnc3c2nc(-c2ccccc2Cl)n3-c2ccc(Cl)cc2)CC1 [OTENABANT]
- Cell Viability (1 µM): 101.882%

Compound: Cc1ccc2nc(CNCCCOc3ccccc3)cc(O)c2c1 [UCSF924]
- Cell Viability (1 µM): 96.7712%

Compound: CCN(CC)S(=O)(=O)Nc1cccc(-c2ccc3c(NC(=O)C4CC4)n[nH]c3c2)c1
- Cell Viability (1 µM): 95.3727%

Compound: CC(=O)N[C@H](Cc1ccc2ccccc2c1)C(=O)N[C@H](Cc1ccc(Cl)cc1)C(=O)N[C@H](Cc1cccnc1)C(=O)N[C@@H](CO)C(=O)N[C@@H](Cc1ccc(NC(=O)[C@@H]2CC(=O)NC(=O)N2)cc1)C(=O)N[C@H](Cc1ccc(NC(N)=O)cc1)C(=O)N[C@@H](CC(C)C)C(=O)N[C@@H](CCCCNC(C)C)C(=O)N1CCC[C@H]1C(=O)N[C@H](C)C(N)=O [DEGARELIX] (Ac-[d2Nal][dPhe(4-Cl)][d3Pal]S[Phe(4-NH2)](Dihydroorotyl(S))[dPhe(4-NHCONH2)]L[Lys(iPr)]P[dA]-NH2)
- Cell Viability (1 µM): 102.434%

Compound: CN(C)C(=O)c1ccc(-c2cc(C(=O)N[C@@H]3CCc4ccccc43)no2)cc1O
- Cell Viability (1 µM): 97.9607%

Compound: CN(C)CCCOc1ccc(-c2cc(NCCCn3cccn3)nc(S(C)(=O)=O)n2)cc1
- Cell Viability (1 µM): 98.5143%

Compound: COc1cc(C(=O)N(CCCc2ccccc2)Cc2ccc(CC(=O)O)cc2)cc(OC)c1C
- Cell Viability (1 µM): 101.167%

Compound: O=C(NCC(=O)N1CCCC1)Nc1ccc2cnccc2c1
- Cell Viability (1 µM): 100.263%

Compound: Cc1cc(C)c(-n2ccn3nc(-c4cccnc4)cc23)cc1NC(=O)c1cc(C#N)cc(S(F)(F)(F)(F)F)c1 [BAY-826]
- Cell Viability (0.1 µM): 99.8561%

Compound: CO[C@H]1CC[C@H](CNc2ccc(S(=O)(=O)NC(=O)c3ccc(N4CCN(CC5=C(c6ccc(Cl)cc6)CC(C)(C)CC5)CC4)cc3Oc3cnc4[nH]ccc4c3)cc2[N+](=O)[O-])CC1 [A-1211212]
- Cell Viability (1 µM): 88.4422%

Compound: COc1cc(C(=O)N2CC[C@@H](O)[C@@H](N)C2)cc2nc(-c3cc4ccccc4n3CC3CC3)n(C)c12.Cl
- Cell Viability (1 µM): 96.5784%

Compound: CN([C@@H]1CCc2c(CC(=O)O)c3ccccc3n2C1)S(=O)(=O)c1ccc(F)cc1 [MK-7246]
- Cell Viability (1 µM): 96.8838%

Compound: CC(=O)Nc1c(F)cc(C(=O)N[C@H]2CC[C@H](O)CC2)cc1O[C@@H](C)c1ccccc1 [GSK046]
- Cell Viability (1 µM): 96.5866%

Compound: O=S(=O)(NC1CCC(c2cc(F)ccc2F)(S(=O)(=O)c2ccc(Cl)cc2)CC1)C(F)(F)F (centres undefined) [MRK-560]
- Cell Viability (0.1 µM): 103.093%

Compound: Cc1sc2c(c1C)C(c1ccc(Cl)cc1)=N[C@@H](CC(=O)OC(C)(C)C)c1nnc(C)n1-2
- Cell Viability (1 µM): 83.2653%

Compound: CCOc1ccc(C[C@H]2NC(=O)CCSSC[C@@H](C(=O)N3CCC[C@H]3C(=O)N[C@@H](CCCN)C(=O)NCC(N)=O)NC(=O)[C@H](CC(N)=O)NC(=O)[C@H]([C@@H](C)O)NC(=O)[C@H]([C@@H](C)CC)NC2=O)cc1 [ATOSIBAN] ([Mpa][dY](Et)ITNCP[Orn]G-NH2; disulfide 1-6)
- Cell Viability (1 µM): 101.789%

Compound: COc1ccc2c(c1)O[C@@H](c1ccc(OC)c(OC)c1)C[C@H]2NC(=O)C1(c2ccc3c(c2)OC(F)(F)O3)CC1 [A-1596586]
- Cell Viability (1 µM): 101.385%

Compound: COc1cc(Nc2ccnc3ccc(Br)cc23)cc(OC)c1OC
- Cell Viability (1 µM): 95.869%

Compound: Cn1cc(-c2ccc3occ(-c4cccc(-c5ccncc5)c4)c3n2)cn1
- Cell Viability (1 µM): 101.775%

Compound: N#CC1(c2ccccn2)CCN(Cc2cc(C(=O)O)c(=O)n3ccccc23)CC1 [MSD-M1PAM]
- Cell Viability (1 µM): 98.7103%

Compound: CCCOc1ccn2c(C(C)=O)cc(-c3ccccc3S(C)(=O)=O)c2c1
- Cell Viability (1 µM): 98.3118%

Compound: C[C@@H](OC[C@@]1(c2ccccc2)CC[C@]2(CCC(=O)N2)CN1)c1cc(C(F)(F)F)cc(C(F)(F)F)c1 [ROLAPITANT]
- Cell Viability (1 µM): 97.3629%

Compound: Cc1[nH]cnc1CN1CCc2c(c3ccccc3n2C)C1=O [ALOSETRON]
- Cell Viability (1 µM): 98.6661%

Compound: Cn1nc(C(F)(F)F)cc1-c1cnc(N2CCc3cc(S(=O)(=O)Nc4c(F)cc(Cl)cc4F)cc(N4CCCC4=O)c32)nc1 [TP-020]
- Cell Viability (1 µM): 96.7008%

Compound: Cc1cc(-n2nc(Cc3cc(F)cc(C(F)(F)F)c3)nc2C)ccc1C(N)=O [TP-024]
- Cell Viability (1 µM): 100.697%

Compound: O=S(=O)(c1ccccc1)c1cnc2c(N3CCNCC3)cccc2c1 [INTEPIRDINE]
- Cell Viability (1 µM): 101.733%

Compound: CCOC(=O)c1cc2cc(-c3cc(C(=O)NCc4ccc(C(=O)O)cc4)nn3C)ccc2[nH]1 [BI 4394]
- Cell Viability (0.1 µM): 99.7292%

Compound: COc1cc2c(cc1NS(=O)(=O)c1ccc(Br)cc1C)n(C)c(=O)n2C
- Cell Viability (1 µM): 96.0295%

Compound: O=C(N1CCS(=O)(=O)CC1)N1C[C@H](c2ccc(OC(F)(F)F)cc2)C[C@H](c2nc(C3CC3)no2)C1 [BAY-386]
- Cell Viability (1 µM): 95.9614%

Compound: Cl.O=C(O)c1cc(-c2ccc(C3CCNCC3)cc2)c2ccc(-c3ccc(C(F)(F)F)cc3)cc2c1
- Cell Viability (1 µM): 98.0873%

Compound: Cc1cc(=O)n(C)c2cc(N3C(=O)CC[C@H](NS(=O)(=O)CC(C)C)[C@H]3c3ccc(Cl)cc3)ccc12
- Cell Viability (1 µM): 97.6321%

Compound: CNC(=O)Nc1ccc2c(c1)CC[C@@]21OC(=O)N(CC(=O)N(Cc2ccc(F)cc2)[C@@H](C)C(F)(F)F)C1=O [A-485]
- Cell Viability (0.1 µM): 92.4439%

Compound: COc1ccccc1C(=O)Nc1cc2c(cc1N1CCNCC1C)n(C)c(=O)n2C (centres undefined)
- Cell Viability (1 µM): 98.4804%

Compound: Cc1c(NC(=O)c2cc(C(N)=O)nc3cc(F)ccc23)c(C(F)(F)F)nn1Cc1ccc(C#N)cc1 [BAY-876]
- Cell Viability (1 µM): 101.62%

Compound: Nc1ncnc2c1ccn2[C@@H]1O[C@H]([C@H](O)c2ccccc2)[C@@H](O)[C@H]1O
- Cell Viability (1 µM): 101.429%

Compound: COc1ccccc1S(=O)(=O)Nc1ccc2c(c1)CN(C)C(=O)N2
- Cell Viability (1 µM): 94.2739%

Compound: Cl.Cl.c1ccc([C@@H]2C[C@H]2NC2CCNCC2)cc1
- Cell Viability (1 µM): 93.3816%

Compound: C[C@H](c1ccc(F)cc1)N(Cc1cccc(C(=O)O)c1)C(=O)c1cnc2ccccc2c1 [PF-05105679]
- Cell Viability (1 µM): 99.1446%

Compound: CN(C)C(=O)Cn1cc(-c2nc([C@@](C)(c3ccc(-c4cnc(N)nc4)cc3)C3CC3)no2)cn1 [BI 665915]
- Cell Viability (0.1 µM): 103.286%

Compound: O=C(Nc1cnc(Oc2ccc(F)cc2)nc1)N1CCc2ncccc2[C@@H]1c1ccc(F)cc1 [BAY-899]
- Cell Viability (1 µM): 98.9586%

Compound: C[C@]12N[C@H](Cc3ccccc31)c1ccccc12 [DIZOCILPINE]
- Cell Viability (1 µM): 102.296%

Compound: CCCc1cc(C)[nH]c(=O)c1CNC(=O)c1cc(-c2ccc(N3CCN(C(C)C)CC3)nc2)cc2c1cnn2C(C)C
- Cell Viability (1 µM): 96.021%

Compound: CC#C[C@@H](CC(=O)O)c1ccc(OCc2cccc(-c3ccc(C(F)(F)F)cc3)c2)cc1
- Cell Viability (1 µM): 93.0276%

Compound: COc1cc(OC)cc(-c2noc(N3CCN(C)C4(CCN(c5ccnc(C)c5)CC4)C3)n2)c1
- Cell Viability (1 µM): 97.1072%

Compound: CC1=C(C#N)C(c2ccc3[nH]nc(C)c3c2)C(C#N)=C(C)N1 [BAY-474]
- Cell Viability (1 µM): 96.499%

Compound: COc1cc2c(NC3CCN(C(C)C)CC3)nc(N3CCC(F)(F)CC3)nc2cc1OCCCN1CCCC1
- Cell Viability (1 µM): 98.4898%

Compound: Cc1cc(Nc2nccc(C)n2)cc(-c2cnc([C@@]3(O)CC[C@H](C(=O)O)C(C)(C)C3)s2)c1 [MRL-SYKi]
- Cell Viability (0.1 µM): 97.9587%

Compound: CCCS(=O)(=O)c1nc(NC2CC2)cc(-c2ccc3c(ccn3C3CC(C)(C)NC(C)(C)C3)c2)n1
- Cell Viability (1 µM): 24.107%

Compound: Cc1cc(OCCCS(C)(=O)=O)cc(C)c1-c1cccc(COc2ccc3c(c2)OC[C@H]3CC(=O)O)c1
- Cell Viability (1 µM): 101.968%

Compound: O=C(c1ccc(C(=O)N2CCC(N3CCCC3)CC2)c(Nc2ccccc2)c1)N1CCC(N2CCCC2)CC1
- Cell Viability (1 µM): 93.0388%

Compound: CCCn1c(=O)c2[nH]c(C3CCCC3)nc2n(CCC)c1=O [1,3-DIPROPYL-8-CYCLOPENTYLXANTHINE [DPCPX]]
- Cell Viability (1 µM): 101.399%

Compound: Cc1cc2c(cc1N1C(=O)c3cccc4c(CCCO)ccc(c34)C1=O)n(C)c(=O)n2C
- Cell Viability (1 µM): 92.6096%

Compound: O=C(O)[C@H]1[C@H](Cn2nnc3ccccc3c2=O)CC[C@@H]1C(=O)c1ccc(OCCC2CCOCC2)cc1 [BAY-7598]
- Cell Viability (0.1 µM): 98.8077%

Compound: Cl.Cl.Cl.c1ccc(N2CCN(Cc3nc4ccccc4[nH]3)CC2)nc1
- Cell Viability (1 µM): 98.1024%

Compound: Cc1ccc2c(c1CCC(=O)O)CC[C@@H](NS(=O)(=O)c1ccc(Cl)cc1)C2 [TERUTROBAN]
- Cell Viability (1 µM): 102.464%

Compound: C[C@@H](c1cccc(CN)c1)n1cc(Cl)cc(C(N)=O)c1=N.Cl
- Cell Viability (1 µM): 100.561%

Compound: C[C@@H]1CN(c2cc(-c3n[nH]c4ccc(OC5(C)CC5)cc34)ncn2)C[C@H](C)O1 [MLi-2]
- Cell Viability (1 µM): 96.3526%
